Values after ≈ are worked out from the molar mass of the structure shown.
settings: buffer; pH 7.4; 200.0 µM

Structure (SMILES)	solubility kinetic [µg/mL]
COc1cccc(C(=O)Nc2c[nH]c(=O)[nH]c2=O)c1	36.1 (≈ 138 µM)
COc1cccc(N(C(C)=O)C2=NCCCS2)c1	> 39.7
O=S(=O)(c1cccc2nsnc12)N1CCCCC1	> 42.5
CCc1ccn2cc(-c3cc(-c4ccccc4)no3)nc2c1	1.5 (≈ 5.18 µM)
C=CCN1C(=O)C2(OCCCO2)c2ccccc21	36.7 (≈ 150 µM)
CC(C)Nc1nc(Cl)nc(Nc2ccccc2)n1	27.3 (≈ 104 µM)
O=[N+]([O-])c1ccc(C(O)CN2CCN(c3ccccc3)CC2)cc1 (stereo unspecified)	3 (≈ 9.16 µM)
CCOC(=O)N1CCC(NS(=O)(=O)c2ccc(C)c(Cl)c2)CC1	> 54.1
Cc1ccc(CN(Cc2ccco2)C(=S)Nc2ccccc2C)cc1	0.4 (≈ 1.14 µM)
COc1ccc2oc(=N)c(C(=O)Nc3ccc(C)cc3)cc2c1	0.6 (≈ 1.95 µM)
Cc1noc(C(=O)Nc2ccc(F)cc2F)c1Cl	13.2 (≈ 48.4 µM)
COc1ccc(C(=O)Nc2ccccc2N2CCCC2)cc1	25.6 (≈ 86.4 µM)
O=S(=O)(NOCc1ccc(Cl)cc1)c1ccc(Cl)cc1	< 0.7
Cc1nc(-c2ccc(C(=O)Nc3cccc(F)c3)cc2)cs1	< 0.3
CCn1cc(C(=O)NCCC(=O)NCCCO)c(=O)c2cc3c(cc21)OCO3	> 58.4
Cn1ccsc1=NC(=O)c1ccc(Cl)c([N+](=O)[O-])c1	0.5 (≈ 1.68 µM)
CC(=O)Nc1cc[n+](CC(=O)c2cccc([N+](=O)[O-])c2)cc1.[Cl-]	40.3
CNC(=O)N1c2ccccc2CCc2ccccc21	> 37.8
COc1cc(C(=O)Nc2ccccc2C(=O)Nc2ccccn2)cc(OC)c1OC	4.6 (≈ 11.3 µM)
CCCn1c(=O)c(C(=O)NC(C)c2ccccc2)c(O)c2ccccc21 (stereo unspecified)	1.3 (≈ 3.71 µM)
COc1cccc(/C=C/C(=O)Nc2cccc(C(C)=O)c2)c1OC	4.3 (≈ 13.2 µM)
Cc1cc(OCC(=O)Nc2ccncc2)ccc1Cl	40.6 (≈ 147 µM)

Structure (SMILES)	solubility kinetic [µg/mL]
Cc1onc(NC(=O)NC(=O)c2ccccc2F)c1Br	6.8 (≈ 19.9 µM)
O=C1CN(C(=O)COC(=O)Cc2ccccc2)c2ccccc2N1	> 48.7
COc1ccccc1CC(=O)O/N=C(\N)c1ccccn1	> 42.8
COc1ccc(NC(=O)c2ccc[n+]([O-])c2)cc1	> 36.6
O=C1c2ccccc2NC(c2cccc(O)c2)N1O (stereo unspecified)	> 38.4
O=S(=O)(NC1C2CC3CC(C2)CC1C3)c1ccc(F)cc1 (stereo unspecified)	23 (≈ 74.3 µM)
CC(C)CC(C(=O)Nc1ccccc1)N1C(=O)C2C3C=CC(C3)C2C1=O (stereo unspecified)	> 52.9
CN(C)CCCNC(=O)c1cc(Br)ccc1O	45.2 (≈ 150 µM)
Cc1ccc2[nH]cc(/C=C/c3cc[n+](C)cc3)c2c1.[I-]	> 56.4
O=C1OC(c2ccc(Br)cc2)=N/C1=C\c1ccco1	2.4 (≈ 7.54 µM)
CC1CCN(C(=O)c2ccccc2NC(=O)c2cccs2)CC1	> 49.3
Cc1ccc(C(=O)Nc2ccc3ccccc3n2)cc1	2.3 (≈ 8.77 µM)
COc1ccc(C(=O)C2CCCN(C(=O)C3=CCCC3)C2)c(C)c1 (stereo unspecified)	> 49.1
CCOC(=O)Nc1ccc2c(c1)nc1n2CCN(CCOC)C1	> 47.8
S=C(NCC1CCCO1)N1CCc2ccccc2C1 (stereo unspecified)	> 41.5
O=C(NCCc1ccc(Cl)cc1)c1ccc2c(c1)OCCO2	0.8 (≈ 2.52 µM)
COc1cccc(CNC(=O)CCNC(=O)c2ccco2)c1	> 45.3
CNC(=O)c1cccc2cccc(Sc3ccccc3C(=O)O)c12	44.2 (≈ 131 µM)
CCOC(=O)C1=C(C)N=C2SCCC(=O)N2[C@@H]1c1cccs1	39.1 (≈ 116 µM)
Cc1csc(NC(=O)Cc2ccc(F)cc2)n1	> 37.5
Cc1ccc(N(Cc2cc(=O)[nH]c3ccccc23)C(=O)C(C)C)cc1	47.5 (≈ 142 µM)
O=C(O)c1ccc(-c2ccccc2)[nH]c1=O	> 32.3

Structure (SMILES)	solubility kinetic [µg/mL]
Cc1ccc(NC(=O)N2CCC(NC(=O)c3ccco3)CC2)cc1	> 49.1
COc1ccccc1C(=O)NCCC(=O)Nc1ccc(C)cn1	43.7 (≈ 139 µM)
CN(C)CCN1CC(O)=C(c2nc3ccccc3s2)C1=N	31.5 (≈ 104 µM)
COc1ccc(Cl)cc1NC(=O)c1cc(C)no1	5.7 (≈ 21.4 µM)
Nc1ncc(CCN2CCOCC2)c(-c2ccc(F)cc2)n1	> 45.4
O=C(NCc1ccc2c(c1)OCO2)Nc1ccc2ccccc2c1	1.3 (≈ 4.06 µM)
Cc1ccc(C)n1-c1ccc(-c2ccnc(N)n2)cc1	22.5 (≈ 85.1 µM)
c1ccc(CN2CCC3(CC2)Nc2ccccc2S3)cc1	27.9 (≈ 94.1 µM)
Cc1cccc(N(C)S(=O)(=O)c2csc(C(N)=O)c2)c1	> 46.6
c1ccc2cc(CNCc3cccc4ccccc34)ccc2c1	4.1 (≈ 13.8 µM)
COc1ccccc1NC(=S)NC(NC(C)=O)C(Cl)(Cl)Cl (stereo unspecified)	19 (≈ 51.3 µM)
C=CCN1C(=O)C2C3CC(=O)C(c4ccccc43)C2C1=O (stereo unspecified)	> 42.2
O=C(COc1ccccc1F)Nc1ccc2c(c1)CCC2	4 (≈ 14 µM)
CCS(=O)(=O)N1CCC(C(=O)Nc2cc([N+](=O)[O-])ccc2C)CC1	> 53.3
Cc1cc(C)c(C#N)c(SCCN2CCCCC2)n1	> 41.3
Cc1ccc(S(=O)(=O)Nc2cccnc2)cc1C	10.7 (≈ 40.8 µM)
COc1ccccc1NC(=O)c1ccccc1NC(=O)c1cccs1	< 0.4
Clc1cccc(CN2CCCCCC2)c1Cl	4.8 (≈ 18.6 µM)
O=C(CSc1ccccc1)Nc1ccc2sccc2c1	0.7 (≈ 2.34 µM)
COC1(NC(=O)c2ccccc2)C(C)=CC(=O)C=C1C	40 (≈ 147 µM)
CCC(=O)c1cn(CC(=O)Nc2c(C)cccc2C)c2ccccc12	< 0.4
O=C(O)c1cc(NS(=O)(=O)c2ccc(F)cc2)cc(NS(=O)(=O)c2ccc(F)cc2)c1	> 70.3

Structure (SMILES)	solubility kinetic [µg/mL]
CCCCn1c(N)c(C(=O)NCc2cccs2)c2nc3ccccc3nc21	1.6 (≈ 4.22 µM)
CCOC(=O)N1CCN(C(=O)CNC(=O)c2ccccc2F)CC1	> 50.6
COc1ccc([N+](=O)[O-])cc1NC(=O)COC(=O)c1ccccn1	20.9 (≈ 63.1 µM)
COC(=O)c1cccc(CSC(=S)N2CCCC2)c1	3.6 (≈ 12.2 µM)
O=C(O)/C=C/C(=O)Nc1ccc(-n2nccc2C(F)(F)F)cc1	> 48.8
NC(=O)c1ccc(NC(=O)CNC(c2ccccc2)c2ccccc2)cc1	3.7 (≈ 10.3 µM)
CCc1noc(C)c1C(=O)OCC(=O)NC(C)c1ccccc1 (stereo unspecified)	> 47.5
O=C(CCc1ccccc1)Nc1nccs1	17.9 (≈ 77.1 µM)
Cc1cc(C(=O)COC(=O)/C=C/c2ccc(F)cc2)c(C)n1C	6.2 (≈ 19.7 µM)
Cc1ccc(C(=O)NC(=S)N(C)C2CCCCC2)cc1	9.9 (≈ 34.1 µM)
O=C(CN1C(=O)NC2(CCCC2)C1=O)N1CCN(c2ccccc2O)CC1	> 55.9
CC(=O)CSc1nnc(-c2ccco2)n1-c1ccccc1	> 44.9
CC(=O)c1c(C)nc2ccc([N+](=O)[O-])cc2c1-c1ccccc1	21.9 (≈ 71.5 µM)
NC(=O)COC(=O)c1ccc(S(=O)(=O)NCc2ccco2)cc1	> 50.8
Cc1ccc(/C=C2/SC(=Nc3ccc(F)cc3)NC2=O)s1	0.8 (≈ 2.51 µM)
CSCCCNC(=S)N1CCc2ccccc2C1	> 42.1
O=C(CN1C(=O)NC2(CCCC2)C1=O)NCc1ccco1	> 43.7
COc1ccc(NC(=O)COC(=O)C2=COCCO2)cc1OC	> 48.5
O=c1[nH]c(=S)n(C2CC2)c(O)c1C=NCC1CCCO1 (stereo unspecified)	> 44.3
N/C(=N\OC(=O)COc1ccc2ccccc2c1)c1ccncc1	6.2 (≈ 19.3 µM)
